# Data: patent US6165984A, “Naringin and naringenin as inhibitors of acyl CoA-cholesterol-o-acyltransferase” (Korea Institute of Science & Technology, priority 1997, dated 2000)
# Columns and labels:
# [1] = Blood total cholesterol and triglyceride in cholesterol-fed rabbits (Example 6); type: in vivo, New Zealand White rabbit; details: 1% cholesterol diet, 6 weeks, 1 mg/kg Lovastatin, 0.1% naringin or naringenin
# Method: Blood samples were taken from the rats of the three dietary groups and plasma HDL fractions were separated therefrom by using HDL-cholesterol reagent (Sigma Chemical Co., Cat. No. 352-3) containing dextran-sulfate. Total cholesterol and HDL-cholesterol levels were determined by using Sigma Diagnostic Kit Cat. No. 352-100(Sigma Chemical Co., […] et al., Clin. Chem., 20, 470-475(1974)). Neutral lipid level was determined by using Sigma Diagnostic Kit Cat. No. 339-50(Bucolo, G. and David, H., Clin. Chem., 19, 476-482(1973)). The result is shown in Table III, wherein the total plasma cholesterol levels in naringin and naringenin-fed rat groups decreased by 32% and 18%, respectively, as compared with that of the control group. […] RC4 diet comprises 7.6% moisture, 22.8% crude protein, 2.8% crude fat, 8.8% crude ash, 14.4% crude cellulose and 43.6% soluble nitrogen-free substances. The rabbits were bred for 6 weeks while being allowed free access to the diets and water. Further, blood samples were taken from the rabbits and total cholesterol and triglyceride levels were determined in accordance with the same procedure in Example 4.
# [2] = system: creatin kinase in the liver; details: in vivo; cited from earlier work
# [3] = system: macrophage-lipid complex on the arterial endothelium; assay: Fatty streak analysis: macrophage-lipid complex on main artery of cholesterol-fed rabbits (Example 6); type: in vivo, New Zealand White rabbit; details: 1 mg/kg Lovastatin
# Description: RC4 diet comprises 7.6% moisture, 22.8% crude protein, 2.8% crude fat, 8.8% crude ash, 14.4% crude cellulose and 43.6% soluble nitrogen-free substances. The rabbits were bred for 6 weeks while being allowed free access to the diets and water. The rabbits bred in (Step 1) were sacrificed and their chest were incised. The main artery was cut out therefrom in a length of about 5 cm downward from the site 1 cm above the aortic valve and the fat surrounding the main artery was removed. The main artery was incised in the middle along the longitudinal axis and pinned to a dish. The moist artery was photographed and, then, staining of fatty streak was carried out in accordance with the method of […]., et al. (J. Lab. Clin. […] A part of the incised main artery was washed three times by 2 min. with anhydrous propylene glycol and stained for 30 min. with a saturated solution of Oil Red O (ORO, Sigma Co.) dissolved in propylene glycol. Thereafter, the artery was washed twice by 3 min. with 85% propylene glycol to remove remaining staining solution and, then washed with physical saline. The artery was photographed and the photograph was traced. The area of stained region (fatty streak region) was determined with an image analyzer (LEICA, Q-600, Germany) and its proportion (%) to the total arterial area was calculated. On the other hand, the other part of the main artery was stained in accordance with hematoxylin-eosin (H&E) and Masson's trichrome staining methods and observed under a microscope to confirm whether the macrophage-lipid complexes were accumulated in the intima, internus, elastic lamina and media.
# hepatic cells = details: rabbits, 1% cholesterol diet, six weeks; 1 mg/kg Lovastatin, 0.1% naringin
# Method: The same procedure as in (Step 1) was repeated except that 30 three-month old New Zealand White rabbits (Yeonam Horticulture and Animal Husbandry College, Korea) each weighing about 2.5 to 2.6 kg were used in place of the rats, and the rabbits were fed for six weeks with three different diets, i.e., RC4 diet containing 1% cholesterol (Control group); 1% cholesterol plus 1 mg/kg Lovastatin® (Comparative group); and 1% cholesterol plus 0.1% naringin, respectively.
# Thereafter, the livers were separated from the rabbits and the histopathological observations were carried out as follows.
# The rabbits were anesthetized with an intramuscular injection of ketamine (75 mg/kg) and subjected to an abdominal incision. […] The fixed liver was washed sufficiently with water, dehydrated stepwise with 70%, 80%, 90% and 100% ethanol and, then, embedded in paraffin. The embedded liver was sectioned in 4 μm thickness with a microtome and stained with hematoxylin and eosin. The stained liver specimen was made transparent with xylene, mounted with permount, and then observed under a microscope to confirm the presence of lesions.
structure (smiles),measurement,setting,value
"CC[C@H](C)C(=O)O[C@H]1C[C@@H](C)C=C2C=C[C@H](C)[C@H](CC[C@@H]3C[C@@H](O)CC(=O)O3)[C@H]21 [Lovastatin, reference compound]",Triglyceride,[1]; control 56,66 mg/dL
same,Total cholesterol,[1]; control 1143,1210 mg/dL
same,adverse side effect,[2],increasing creatin kinase in the liver
same,layer of macrophage-lipid complex on the arterial endothelium (FIGS. 1A-1C),"[3]; 0.1% naringin, control: thick layer",no or very thin layers of macrophage-lipid complex
same,"area of macrophage-lipid complex accumulated on the arterial endothelium, compared to control group","[3]; 1% cholesterol diet, 6 weeks, 0.1% naringin or naringenin",decreased significantly
same,M-L (macrophage-lipid) complex area,"[3]; proportion of total arterial area, 1% cholesterol diet, 6 weeks, 0.1% naringin or naringenin, control 35",5%
same,microscopic features of the liver (FIGS. 2A-2C),hepatic cells,irregularly arranged and enlarged and a large amount of fat is deposited therein
